Measured values published in article PMC8626775, “Anti-schistosomal activities of quinoxaline-containing compounds: From hit identification to lead optimisation” (European Journal of Medicinal Chemistry, 2021).
Like-named read-outs stand apart in the source and are kept apart here.

What was measured:
S. mansoni schistosomula = S. mansoni schistosomula high-throughput phenotype and motility screen (Roboworm), 72 h; type: cell-based, Schistosoma mansoni
Summary of the method: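 Newly transformed schistosomula (S. mansoni PR-1, mechanically transformed cercariae), 120 per well, exposed to compounds at a single concentration or two-fold titrations for 72 h at 37 °C, 5% CO2.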

S. mansoni adult worms [1] = assay: In vitro laid egg (IVLE) production by S. mansoni adult worm pairs, 72 h; type: cell-based, Schistosoma mansoni
Experimental: For the evaluation of anti-schistosomal activity on the adult stage of the parasite, 7-wk old worms were transferred into 48 well tissue culture plates (1–3 worm pairs/well, in duplicate). […] DMSO (0.5%) and praziquantel (10 μM in 0.5% DMSO) were also included as negative and positive control treatments. Treated adult worms were incubated for 72 h in a humidified environment containing 5% CO2 at 37 °C. Parasite motility after compound treatment was assessed by a digital image processing-based system (WormassayGP2), modified after Wormassay. Following compound-parasite co-incubation, eggs were collected, fixed in formalin (10% v/v formaldehyde) and enumerated aiming to collect further information on any compound-induced effects on parasite fecundity and IVLE production.

S. mansoni adult worms [2] = assay: S. mansoni adult worm motility screen (WormassayGP2), 72 h; type: cell-based, Schistosoma mansoni
Summary of the method: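 Seven-week adult S. mansoni worms, perfused from infected mice, were exposed in duplicate (1–3 pairs/well) to […] compound in 0.5% DMSO for 72 h at 37 °C, 5% CO2. Motility was scored by image-based WormassayGP2, and eggs were counted afterwards.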

[3] = HepG2 MTT cytotoxicity assay; conditions: human, HepG2 cells
Experimental: Initially the cells were handled under sterile conditions and grown at 37 °C in a humidified atmosphere containing 5% CO2. Cytotoxicity was evaluated by way of a 3-(4, 5- dimethylthiazol-2-yl)-2,5-diphenyl tetrazolium bromide (MTT) assay as previously described. The cells were counted in a dual chamber counting slide using the BIORAD TC-10 Automated cell counter, seeded in a 96-well plate (Fisher Scientific, Loughborough, UK) at a density of 2 × 10^4 cells/well and incubated in an atmosphere of 5% CO2 at 37 °C. […] The absorbance readings (at 570 nm) of the soluble formazan crystals were recorded using PolarStar Omega plate reader (BMG-Labtech). […] The latter was used to calculate the selectivity index (SI) of the compounds presented herein.

S. mansoni [4] = test system: S. mansoni; parameters: method as in PMID 24416463; conditions: cited from earlier work
S. mansoni [5] = test system: S. mansoni; parameters: method as in PMID 24416463; conditions: cited from earlier work; remark: listed apart in the source
[6] = Schistosoma mansoni, 72 h, Table 1, 72 h, two dose response titrations (0.313–10 μM), 95% CI in brackets, read-out: Activity on schistosomula (EC50, μM - 72 h) Motility
[7] = Schistosoma mansoni, 72 h, Table 1, 72 h, two dose response titrations (0.313–10 μM), 95% CI in brackets, read-out: Activity on schistosomula (EC50, μM - 72 h) Phenotype
[8] = Schistosoma mansoni, 72 h, Table 1, mean of phenotype and motility EC50, 72 h, read-out: Activity on schistosomula (EC50, μM - 72 h) Average

c1ccc(/N=c2\sc3ccccc3s\c2=N\c2ccccc2)cc1 [Compound 1]
Activity on schistosomula in the primary screen at 10 μM (S. mansoni schistosomula; 72 h): hit
Activity on schistosomula in the primary screen at 50 μM (S. mansoni schistosomula; 50 μM, 72 h): hit
EC50 (S. mansoni schistosomula; [6]): 4.47 µM
EC50 (S. mansoni schistosomula; [7]): 4.72 µM
EC50 (S. mansoni schistosomula; [8]): 4.59 µM
EC50 (S. mansoni schistosomula; Schistosoma mansoni, Fig. S3, average schistosomula EC50, read-out: EC50 (Fig. S3, anti-schistosomula activity)): 4.41 µM
Concentration down to which activity on schistosomula was retained (S. mansoni schistosomula; dose-response titration, 72 h): 5 µM
Concentration up until which production of in vitro laid eggs (IVLEs) was significantly inhibited (S. mansoni adult worms [1]; titration 50–6.25 μM): 12.5 µM
Adult worm motility at 6.25 μM (S. mansoni adult worms [2]; 6.25 μM, 72 h): normal motility
Effect on adult male and female worm pairs at 50 and 25 μM (S. mansoni adult worms [2]; 50 and 25 μM, 72 h): lethal effect

O=[N+]([O-])c1ccc2nc(Nc3ccccc3)c(Nc3ccccc3)nc2c1 [Compound 19]
Activity on schistosomula in the primary screen at 10 μM (S. mansoni schistosomula; 72 h): retained activity
EC50 (S. mansoni schistosomula; [6]): 1.35 µM
EC50 (S. mansoni schistosomula; [7]): 1.89 µM
EC50 (S. mansoni schistosomula; [8]): 1.62 µM
EC50 (S. mansoni schistosomula; Schistosoma mansoni, Table 3, read-out: Anti-schistosomal activity EC50 (μM) Schistosomula Motility): 1.35 µM
EC50 (S. mansoni schistosomula; Schistosoma mansoni, Table 3, read-out: Anti-schistosomal activity EC50 (μM) Schistosomula Phenotype): 1.89 µM
CC50 at 24 h [3]: 12.6 µM
Effect on adult worm motility at 3.15 μM (S. mansoni adult worms [2]; 3.15 μM, lowest concentration tested): complete cessation of worm mobility
Effect on adult worm motility at 12.5 and 6.25 μM (S. mansoni adult worms [2]; 12.5 and 6.25 μM): particularly active

O=[N+]([O-])c1ccc2nc(-c3ccc(F)cc3)c(-c3ccc(F)cc3)nc2c1 [Compound 21]
EC50 (S. mansoni schistosomula; [6]): > 50 µM
EC50 (S. mansoni schistosomula; [7]): > 50 µM
Effect on phenotype and motility of S. mansoni schistosomula (S. mansoni schistosomula; primary tested concentrations 10 and 50 μM, 72 h): did not have any effect
CC50 at 24 h [3]: 6 to 20 µM

O=[N+]([O-])c1ccc2nc(Nc3cc(F)cc(C(F)(F)F)c3)c(Nc3cc(F)cc(C(F)(F)F)c3)nc2c1 [Compound 34, N2, N3-bis(3-fluoro-5-(trifluoromethyl)phenyl)-6-nitroquinoxaline-2,3-diamine]
EC50 (S. mansoni schistosomula; Schistosoma mansoni, 72 h, Table 2, average of phenotype and motility EC50, 72 h, read-out: Activity on schistosomula (EC50, μM - 72 h) Average): 0.4 µM
EC50 (S. mansoni schistosomula; Schistosoma mansoni, 72 h, Table 2, motility, 72 h, three replicate titrations (0.313–10 μM), read-out: Activity on schistosomula (EC50, μM - 72 h) M): 0.43 µM
EC50 (S. mansoni schistosomula; Schistosoma mansoni, 72 h, Table 2, phenotype, 72 h, three replicate titrations (0.313–10 μM), read-out: Activity on schistosomula (EC50, μM - 72 h) P): 0.37 µM
EC50 (S. mansoni schistosomula; Schistosoma mansoni, Table 4, Series A, read-out: Anti-schistosomal activity EC50 Schistosomula (μM) Motility): 0.43 µM
EC50 (S. mansoni schistosomula; Schistosoma mansoni, Table 4, Series A, read-out: Anti-schistosomal activity EC50 Schistosomula (μM) Phenotype): 0.37 µM
Effect on IVLE production compared with PZQ (S. mansoni adult worms [1]; 0.0024–10 μM): more potent than PZQ
EC50 (S. mansoni adult worms [2]; Schistosoma mansoni, Table 4, Series A, read-out: Anti-schistosomal activity EC50 Adult (nM) Motility): 6.47 nM
EC50 (S. mansoni adult worms [2]; Schistosoma mansoni, Table 2, 72 h, titrations 0.0095–5 μM, WormassayGP2, read-out: Activity on adult worms (EC50, μM - 72 h) Motility): 6.47 nM

N2, N3-bis(4-bromophenyl)quinoxaline-2,3-diamine [Compound 38, reference compound]
EC50 (S. mansoni schistosomula; 72 h, read-out: EC50 on schistosomula (bounds and ranges given)): > 2 µM
EC50 (S. mansoni schistosomula; Table 2, average of phenotype and motility EC50, 72 h, read-out: Activity on schistosomula (EC50, μM - 72 h) Average): 2.44 µM
EC50 (S. mansoni schistosomula; Table 2, motility, 72 h, three replicate titrations (0.313–10 μM), read-out: Activity on schistosomula (EC50, μM - 72 h) M): 1.21 µM
EC50 (S. mansoni schistosomula; Table 2, phenotype, 72 h, three replicate titrations (0.313–10 μM), read-out: Activity on schistosomula (EC50, μM - 72 h) P): 3.67 µM
Worm burden reduction (S. mansoni [4]; four per oral doses of 100 mg/kg, delivered every 4 h): 53.4%
Worm burden reduction (S. mansoni [4]; single per oral dose of 400 mg/kg): 40.8%
In vitro activity on S. mansoni (S. mansoni [5]): sub micromolar range
EC50 (S. mansoni adult worms [2]; Table 2, 72 h, titrations 0.0095–5 μM, WormassayGP2, read-out: Activity on adult worms (EC50, μM - 72 h) Motility): 162 nM
